We go through 8 compounds from patent US20220324835A1 (Nurix Therapeutics, Inc., priority 2018, published 2022).

Where two headings read alike, the source gives them in different places. Some results are limits rather than exact numbers.

The subject of one assay is T-cells. In words: In vivo activity: CD25 expression on CD4+ or CD8+ T-cells of mice stimulated with anti-CD3 antibody. The settings on record: 2 μg anti-CD3 antibody, 24 hours. Here is the method:
A method of determining the pharmacodynamic profile of Cbl-b inhibitors was performed by dosing strains of mice with competent immune systems such as C57BL/6 or BALB/c with a Cbl-b inhibitor. The Cbl-b inhibitor was dissolved in a suitable formulation and administered by one of various routes such as intravenous (IV), intraperitoneal (IP), subcutaneous (SC), or oral (PO), at a suitable dose level and frequency (e.g. twice per day BID or thrice per day TID) as informed by prior pharmacokinetic and tolerability studies. Following administration of the Cbl-b inhibitor, T-cells and indirectly other immune cells (e.g. via cytokine production) were stimulated in vivo by administration of an anti-CD3 antibody or antigen-binding fragment thereof in PBS at defined amounts such as 2 μg or 10 μg per animal by routes such as IV or IP (See Hirsh et al., J. Immunol., 1989; Ferran, et al., Eur. J. Immunol., 1990). Additional study control arms included groups of mice treated with a vehicle formulation alone (i.e., formulation without the Cbl-b inhibitor and anti-CD3 antibody), a formulation containing the Cbl-b inhibitor alone, a formulation containing the anti-CD3 antibody alone, PBS alone, or combinations of these agents. The level of immune activation was then assessed by analysis of plasma cytokine levels and/or expression of activation markers on immune cells (e.g. T-cells). Blood or lymphoid organs (e.g. spleen) were collected at defined time points (e.g. 8 hours or 24 hours). Blood samples were processed to collect plasma for determination of cytokine levels using standard methods known in the art. Cytokines measured included IL-2, IFNγ, and TNFα. Additional blood samples and lymphoid tissues were processed for flow cytometric analysis of immune cells (e.g. T-cells) using standard methods to determine expression of cell type-specific markers and activation markers such as CD25 and/or CD69. Augmentation of immune stimulation by Cbl-b inhibitor administration was assessed by comparing the relative concentrations of cytokines in plasma, or the expression levels of activation markers on immune cells between appropriate groups (e.g. mice treated with Cbl-b inhibitor and 2 μg anti-CD3 antibody versus mice treated with vehicle and 2 μg anti-CD3 antibody).
Cbl-b inhibitors were tested to determine their ability to induce or enhance the level of cytokines (e.g. IL-2, IFNγ, and TNFα) in blood obtained from treated mice stimulated with an anti-CD3 antibody, which is indicative of modulation of the immune response. Cbl-b inhibitors were also tested to determine their ability to induce or enhance the expression of cell surface markers on T-cells (e.g. CD25 and/or CD69) isolated from treated mice stimulated with an anti-CD3 antibody, which is indicative of modulation of the immune response.
Readouts were reported as fold change over baseline. The fold change was calculated from the mean value of mice treated with Cbl-b inhibitor and 2 μg anti-CD3 antibody, with the baseline defined as the mean value of mice treated with vehicle and 2 μg anti-CD3 antibody. Increases in the percentage of cells with surface expression of CD25 on CD4+ T-cells or CD8+ T-cells greater than 1.5-fold over baseline at 24 hours were considered a positive response. Increases in the plasma concentration of IL-2, IFNγ, and TNFα greater than 1.5-fold over baseline at 8 hours post-stimulation were also considered a positive response (Table 8). Fold changes were ranked into bins according to their readouts as follows: A indicates >2.50, B indicates 2.01-2.50, C indicates 1.51-2.00, D indicates 1.00-1.50, and E indicates <1.00.

The subject of the next assay is primary human NK cells. The assay is described as follows: NK cell activation assessed by cytokine secretion (coculture with K562 NucRed target cells). It is filed as cell-based. Here is the method:
Peripheral blood mononuclear cells (PBMC) were obtained either: 1) by using Ficoll-Paque™ (GE Healthcare) for separation of peripheral blood hematopoietic cells from buffy coats of healthy human donors; or 2) directly from LeukoPak donations. […] The cells were cultured overnight with IL-2 (60 ng/mL) at 37° C. 5% CO2. Cbl-b inhibitors were added 1 hour prior to stimulation and incubated at 37° C. 5% CO2 at a specific concentration (e.g., 10 μM, 1 μM, or 0.1 μM) with a final DMSO concentration of <0.1%. NK cells were co-cultured with target cells that were engineered to have a red nucleus (K562 NucRed) measurable by flow cytometry. […] The cells were mixed at the indicated ratios (e.g., 5:1, 1:1, or 1:5) of NK (effector cells) to K562 NucRed (target cells) for 6 hours. Cell free supernatants were collected and analyzed for cytokine secretion (e.g. TNFα, IFNγ, or MIP1β) by ELISA or Luminex multiplex kits following the manufacturer's protocol. IFNγ secretion was assessed using an R&D Systems ELISA kit (Catalog #DY285), TNFα secretion was assessed using an R&D Systems ELISA kit (Catalog #DY210), and MIP1β secretion was assessed using an R&D Systems ELISA kit (Catalog #DY271).
Readouts were reported as fold change over baseline. Baseline for this study was the measurement obtained from primary human NK effector cells cocultured with K562 NucRed target cells in the absence of a Cbl-b inhibitor. For NK cells cocultured with K562 NucRed cells, changes greater than 2.0-fold over baseline for cytokine secretion were considered a positive response (Table 10a and 10b).

Setting [1] is: K562, 1:1 E/T, read-out: IFNγ secretion.
The mark [2] stands for this setting: K562, 1:1 E/T, read-out: MIP1β secretion.
Where [3] appears, read: K562, 1:1 E/T, read-out: TNFα secretion.
Where [4] appears, read: K562, 5:1 E/T, read-out: IFNγ secretion.
[5] abbreviates: K562, 5:1 E/T, read-out: MIP1β secretion.
Where [6] appears, read: K562, 5:1 E/T, read-out: TNFα secretion.

With `C[C@H](Cc1nncn1C)c1cccc(NC(=O)c2cc(C3CC3)cc(C(F)(F)F)n2)c1` [Compound 191, (R)-4-cyclopropyl-N-(3-(1-(4-methyl-4H-1,2,4-triazol-3-yl)propan-2-yl)phenyl)-6-(trifluoromethyl)picolinamide], the “CD4+ T-cell % CD25+” value in the assay with T-cells (45 mpk IP BID) is “C (C indicates 1.51-2.00)”; with T-cells (90 mpk PO BID), “D (D indicates 1.00-1.50)”; in the assay with T-cells (135 mpk PO BID) it was “D (D indicates 1.00-1.50)”; with T-cells (180 mpk PO BID) it was “B (B indicates 2.01-2.50)”. The “CD8+ T-cell % CD25+” value in the assay on T-cells (45 mpk IP BID), in the assay with T-cells (90 mpk PO BID), in the assay with T-cells (135 mpk PO BID) and with T-cells (180 mpk PO BID) was “D (D indicates 1.00-1.50)” in each case. The fold induction at 1 µM in the assay on primary human NK cells (setting [1]) lay in the range of 2.01 to 5; with primary human NK cells (setting [2]), 1.01 to 2; with primary human NK cells (setting [3]) it was 2.01 to 5; in the assay on primary human NK cells (setting [4]), 2.01 to 5; in the assay with primary human NK cells (setting [5]) it was 1.01 to 2; in the assay with primary human NK cells (setting [6]) it was 2.01 to 5. For the same compound, the fold induction at 10 µM in the assay on primary human NK cells (setting [1]) is 2.01 to 5; in the assay on primary human NK cells (setting [2]), 1.01 to 2; in the assay with primary human NK cells (setting [3]), 1.01 to 2; in the assay on primary human NK cells (setting [4]), more than 5; in the assay on primary human NK cells (setting [5]), 1.01 to 2; with primary human NK cells (setting [6]), 2.01 to 5.
`C[C@@H](c1cc2c(c(C(F)(F)F)c1)CN(c1cccc(C3(Cc4nncn4C)COC3)c1)C2=O)N1C[C@H]2C[C@H]2C1` [Compound 541a, 6-((1S)-1-(3-azabicyclo[3.1.0]hexan-3-yl)ethyl)-2-(3-(3-((4-methyl-4H-1,2,4-triazol-3-yl)methyl)oxetan-3-yl)phenyl)-4-(trifluoromethyl)isoindolin-1-one]: in the assay with T-cells (135 mpk PO BID), the “CD4+ T-cell % CD25+” value is recorded as “D (D indicates 1.00-1.50)” and the “CD8+ T-cell % CD25+” value is “D (D indicates 1.00-1.50)”.
For `C[C@@H](c1cc2c(c(C(F)(F)F)c1)CN(c1cccc(C3(Cc4nncn4C)COC3)c1)C2=O)N1CCC(C)(F)CC1` [Example 553a, (S)-6-(1-(4-fluoro-4-methylpiperidin-1-yl)ethyl)-2-(3-(3-((4-methyl-4H-1,2,4-triazol-3-yl)methyl)oxetan-3-yl)phenyl)-4-(trifluoromethyl)isoindolin-1-one], in the assay on T-cells (135 mpk PO BID), the “CD4+ T-cell % CD25+” value is “D (D indicates 1.00-1.50)” and the “CD8+ T-cell % CD25+” value is “D (D indicates 1.00-1.50)”.
As for `C[C@H](c1cc2c(c(C(F)(F)F)c1)CN(c1cccc(C3(Cc4nncn4C)COC3)c1)C2=O)N1CCC(C)(F)CC1` [Example 553b, (R)-6-(1-(4-fluoro-4-methylpiperidin-1-yl)ethyl)-2-(3-(3-((4-methyl-4H-1,2,4-triazol-3-yl)methyl)oxetan-3-yl)phenyl)-4-(trifluoromethyl)isoindolin-1-one], in the assay with T-cells (135 mpk PO BID), the “CD4+ T-cell % CD25+” value is listed as “A (A indicates >2.50)” and the “CD8+ T-cell % CD25+” value was “D (D indicates 1.00-1.50)”.
As for `Cn1cnnc1CC1(c2cccc(N3Cc4c(cc(CN5CCC(C)(F)CC5)cc4C(F)(F)F)C3=O)c2)COC1` [Example 620, 6-((4-fluoro-4-methylpiperidin-1-yl)methyl)-2-(3-(3-((4-methyl-4H-1,2,4-triazol-3-yl)methyl)oxetan-3-yl)phenyl)-4-(trifluoromethyl)isoindolin-1-one], the “CD4+ T-cell % CD25+” value in the assay on T-cells (90 mpk PO BID), in the assay with T-cells (135 mpk PO BID) and in the assay on T-cells (180 mpk PO BID) was “D (D indicates 1.00-1.50)” in each case. Moreover, the figures for the “CD8+ T-cell % CD25+” value with T-cells (90 mpk PO BID), with T-cells (135 mpk PO BID) and with T-cells (180 mpk PO BID) were “D (D indicates 1.00-1.50)”, “E (E indicates <1.00)” and “E (E indicates <1.00)”, respectively.
On to `C[C@@H]1CN(Cc2cc3c(c(C(F)(F)F)c2)CN(c2cccc(C4(Cc5nncn5C)COC4)c2)C3=O)CCO1` [Example 663b, (R)-2-(3-(3-((4-methyl-4H-1,2,4-triazol-3-yl)methyl)oxetan-3-yl)phenyl)-6-((2-methylmorpholino)methyl)-4-(trifluoromethyl)isoindolin-1-one], for which the “CD4+ T-cell % CD25+” value in the assay with T-cells (45 mpk PO BID) is “D (D indicates 1.00-1.50)”; with T-cells (135 mpk PO BID), “C (C indicates 1.51-2.00)”. The “CD8+ T-cell % CD25+” value in the assay on T-cells (45 mpk PO BID) and with T-cells (135 mpk PO BID) was “D (D indicates 1.00-1.50)” each time.
Regarding `Cn1cnnc1[C@@H](F)C1(c2cccc(N3Cc4c(cc(CN5CCC(F)CC5)cc4C(F)(F)F)C3=O)c2)COC1` [Example 670a, (S)-2-(3-(3-(fluoro(4-methyl-4H-1,2,4-triazol-3-yl)methyl)oxetan-3-yl)phenyl)-6-((4-fluoropiperidin-1-yl)methyl)-4-(trifluoromethyl)isoindolin-1-one], in the assay with T-cells (135 mpk PO BID), the “CD4+ T-cell % CD25+” value is reported as “B (B indicates 2.01-2.50)” and the “CD8+ T-cell % CD25+” value is on record as “D (D indicates 1.00-1.50)”.
Take `Cn1cnnc1[C@H](F)C1(c2cccc(N3Cc4c(cc(CN5CCC(F)CC5)cc4C(F)(F)F)C3=O)c2)COC1` [Example 670b, (R)-2-(3-(3-(fluoro(4-methyl-4H-1,2,4-triazol-3-yl)methyl)oxetan-3-yl)phenyl)-6-((4-fluoropiperidin-1-yl)methyl)-4-(trifluoromethyl)isoindolin-1-one]: in the assay with T-cells (135 mpk PO BID), the “CD4+ T-cell % CD25+” value is on record as “C (C indicates 1.51-2.00)” and the “CD8+ T-cell % CD25+” value was “D (D indicates 1.00-1.50)”.
